Paper PMC4823750, “Enoyl-CoA hydratase mediates polyhydroxyalkanoate mobilization in Haloferax mediterranei” (Scientific Reports, 2016)

Key:
[1] = biological target: T1, PhaJ1 (PhaJ1-His6; HFX_5217) (Haloferax mediterranei, UniProt A0ACN4YM66); assay: HPLC of dehydration product; format: biochemical; conditions: 0.25 mM racemic 3HB-CoA; 2 M KCl, 100 mM Tris-HCl pH 7.5, 5 mM MgCl2, 45 °C, 30 min
T1 construct: gene maoC; N-terminal His6 tag kept; 219 residues (native); expressed from pTA05-phaJ1 in Haloferax volcanii H1424, Ni-agarose purified
T1 sequence (A0ACN4YM66 entry or part of it): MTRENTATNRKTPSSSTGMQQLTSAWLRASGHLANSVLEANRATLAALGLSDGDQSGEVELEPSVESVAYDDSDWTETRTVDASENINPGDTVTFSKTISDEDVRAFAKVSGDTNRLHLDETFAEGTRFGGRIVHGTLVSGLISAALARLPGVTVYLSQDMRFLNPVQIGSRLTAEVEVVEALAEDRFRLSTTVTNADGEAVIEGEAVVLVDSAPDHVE

[2] = biological target: T1, PhaJ1 (PhaJ1-His6; HFX_5217); assay: HPLC of hydration product; format: biochemical; conditions: 0.25 mM crotonyl-CoA; 2 M KCl, 100 mM Tris-HCl pH 7.5, 5 mM MgCl2, 45 °C, 30 min

Structure (SMILES) | HPLC of dehydration product [1] | HPLC of hydration product [2]
CC(O)CC(=O)SCCNC(=O)CCNC(=O)[C@H](O)C(C)(C)COP(=O)(O)OP(=O)(O)OC[C@H]1O[C@@H](n2cnc3c(N)ncnc32)[C@H](O)[C@@H]1OP(=O)(O)O (some centres unmarked) [3-hydroxybutyryl-CoA] | minor 3HB-CoA was converted into crotonyl-CoA by PhaJ1 | –
C/C=C/C(=O)SCCNC(=O)CCNC(=O)[C@H](O)C(C)(C)COP(=O)(O)OP(=O)(O)OC[C@H]1O[C@@H](n2cnc3c(N)ncnc32)[C@H](O)[C@@H]1OP(=O)(O)O [crotonyl-CoA] | – | major crotonyl-CoA was converted into 3HB-CoA by PhaJ1
